# Assays:
# [1] = tested on: HT-29 human colon carcinoma xenografts; assay: HT-29 human colon carcinoma xenografts in athymic nude mice: tumor growth delay; assay type: in vivo
# From the text: Administration of the TPO Mimetic Peptide Compound One Hour After Administration of Carboplatin. Effect on activity and toxicity of carboplatin against HT-29 human colon carcinoma xenografts established in athymic nude mice.
# (§1) Five groups (n=10) of female athymic nude mice (Harlan) bearing established (˜100 mm^3) HT-29 human colon carcinomas on Day 1. Groups 6-9 (n=20) were included for blood sampling and received the same treatment as Groups 1-4, respectively. Treatment effects on the growth of tumors were evaluated by tumor growth delay (TGD), which is the difference between median time to endpoint (TTE) tumor size in a treatment group compared to a control group. The effect of these treatments on platelet and erythrocyte precursors was determined from CBC analysis and reticulocyte counts of blood samples taken on Days 10, 13, 21 and 24.
# Xenografts were initiated from HT-29 human colon carcinoma xenografts maintained in athymic nude mice. HT-29 tumor fragments (1 mm^3) were implanted subcutaneously into the right flank of each test mouse, and tumor growth was monitored. On Day 1 of the study, the animals were pair-matched into five groups (Groups 1-5) for evaluation of efficacy and four groups for sampling (Groups 6-9). Groups 1-5 each consisted of ten animals with tumor sizes ranging from 75-126 mm^3 and group mean tumor sizes of 99 mm^3. Groups 6-9 each consisted of twenty animals with tumor sizes ranging from 40-221 mm^3 and group mean tumor sizes of 84 mm^3. Tumor weight was estimated with the assumption that 1 mg is equivalent to 1 mm^3 of tumor volume. Volume was calculated using the formula:
# (§2) Group 1 mice (n=10) were untreated tumor growth controls. Group 2 mice (n=10) received 60 mg/kg carboplatin administered intraperitoneally (i.p.) on Days 1, 2, 12, and 13. Group 3 mice (n=10) received 0.2 mg/kg of the TPO mimetic peptide compound administered intravenously (i.v.) via tail vein on Days 2 and 13. Groups 4 and 5 received the combination of carboplatin (60 mg/kg i.p. on Days 1, 2, 12, and 13) and 0.2 mg/kg of the TPO mimetic peptide compound on Days 2, 13 and Days 2, 13, 23, respectively, administered intravenously (i.v.) one hour after carboplatin dosing. Groups 6-9 (n=20 each) were included for blood sampling and received the same treatments as Groups 1-4, respectively. For all groups, each dose of drug was given in a volume of 0.2 mL per 20 g of body weight (10 mL/kg), and was scaled to the body weight of each animal.
# Tumors were measured twice each week using calipers. Each animal was euthanized when its tumor reached the predetermined endpoint size of 1000 mm^3, or on the final day of the study (Day 62), whichever came first. The time to endpoint (TTE) for each mouse was calculated from the following equation: […]
# where b is the intercept and m is the slope of the line obtained by linear regression of a log-transformed tumor growth data set. The data set was comprised of the first observation that exceeded the study endpoint volume and the three consecutive observations that immediately preceded the attainment of the endpoint volume.
# Treatment outcome was determined from tumor growth delay (TGD), which is defined as the increase in the median time to endpoint (TTE) in a treatment group compared to the control group:
# where: • T=median TTE for a treatment group, • C=median TTE for the control group (Group 1)
# Treatment may cause partial regression (PR) or complete regression (CR) of the tumor in an animal. In a PR response, the tumor volume is 50% or less of its Day 1 volume for three consecutive measurements during the course of the study, and equal to or greater than 13.5 mm^3 for one or more of these three measurements. In a CR response, the tumor volume is less than 13.5 mm^3 for three consecutive measurements during the course of the study. An animal with a CR response at the termination of a study is additionally classified as a long-term tumor-free survivor (LTTFS). […]
# [2] = tested on: platelets, reticulocytes, hematocrit; assay: CBC analysis and reticulocyte counts in HT-29 tumor-bearing mice (Groups 6-9); assay type: in vivo, athymic nude mice; settings: for mean reticulocyte values: Group 7
# Description: as §1, with “The effect of these treatments on platelet and erythrocyte precursors was determined from CBC analysis and reticulocyte counts of blood samples taken on Days 10, 13, 21 and 24.” left out
# as §2
# […] Blood was collected into EDTA tubes, and complete blood counts (CBC) with differential were determined using a Cell-Dyn® 3700 System (Abbott Diagnostics) for automated hematology analyses. Reticulocyte values were determined. In addition, for Groups 1-5, five animals per group were euthanized at or just after endpoint by terminal cardiac puncture under CO2 anesthesia, and gross necropsies were performed. Blood samples were collected into EDTA tubes, and CBC with differential and reticulocyte values were performed as previously described. All other animals in Groups 1-5 were euthanized at endpoint without sampling.
smiles,measurement,setting,value
"N.N.O=C([O-])C1(C(=O)[O-])CCC1.[Pt+2] [carboplatin, Carboplatin, reference compound]",regression responses,[1]; Group 2,No regression responses were recorded
same,number of 62-day survivors,"[1]; Group 2, n=10",1
same,tumor volume of the animal remaining in the study on Day 62,"[1]; Group 2, one animal",600 mm^3
same,Tumor Burden Median,"[1]; Group 2: carboplatin 60 mg/kg i.p. Days 1, 2, 12, 13, (n animals) in brackets",600(1)
same,TGD (tumor growth delay),"[1]; Groups 2-4, relative to untreated Group 1, carboplatin 60 mg/kg i.p. Days 1, 2, 12, 13, TPO mimetic peptide compound 0.2 mg/kg i.v. Days 2, 13",22.8 days
same,% Tumor Growth Delay,"[1]; HT-29 xenografts, athymic nude mice, n=10, carboplatin 60 mg/kg i.p. Days 1, 2, 12, 13, TPO mimetic peptide compound 0.2 mg/kg i.v. Days 2, 13, Groups 2-4, vs untreated Group 1",92%
same,Median TTE,"[1]; HT-29 xenografts, athymic nude mice, n=10, carboplatin 60 mg/kg i.p. Days 1, 2, 12, 13, TPO mimetic peptide compound 0.2 mg/kg i.v. Days 2, 13, Groups 2-4, endpoint 1000 mm^3",47.6 days
same,mean HCT values of Group 7 compared to Group 9,"[2]; Days 13, 21, and 23",slightly lower
same,mean reticulocyte values,[2]; Day 10 (near the expected nadir),negligible
same,mean reticulocyte values,[2]; Day 13,higher than in control mice
same,mean reticulocyte values,[2]; Day 21 after the second cycle of treatment,low
same,mean hematocrit (HCT) values compared to untreated mice (Group 6),[2]; Groups 7-9,lower mean HCT values than controls
same,mean platelet counts compared to untreated Group 6 controls,"[2]; Groups 7-9, regimens as Groups 2-4, Days 10, 13, 21, and 23",lower mean platelet counts at all time points

# From patent US20090311344A1, “Dosing Regimen” (priority 2008, published 2009)
